Measured values published in patent publication US20110207726A1, “Inhibitors of Human Cathepsin L, Cathepsin B, and Cathepsin S” (The Trustees of the University of Pennsylvania, priority 2008, published 2011).
Where two headings read alike, the source gives them in different places.

Experiments:
Assay type in all cases: biochemical
human liver cathepsin L = biological target: T1, human liver cathepsin L (Homo sapiens, UniProt P07711); experiment: Cathepsin L assay, IC50 determination
T1 construct: 8.7 ng/mL human liver cathepsin L (Calbiochem 219402); purchased Calbiochem 219402; host or cells: human liver
Procedure: Assay buffer consisted of 20 mM sodium acetate, 1 mM ethylenediaminetetraacetic acid (EDTA) and 5 mM cysteine, pH 5.5. Cathepsin L was incubated in assay buffer for 30 minutes prior to dispensing into wells to allow for efficient reduction of the active site cysteine required for full enzymatic activity.
Upon activation, cathepsin L (300 pM, 8.7 ng/mL) was incubated with 1 microM Z-Phe-Arg-AMC substrate (Sigma C9521) and test compound in […] of assay buffer for 1 hour at room temperature.
All reactions were performed in 20 mM sodium acetate buffer containing 5 mM cysteine and 1 mM EDTA, pH 5.5. Reaction progress was monitored using the Envision microplate reader. IC50 values were measured in triplicate.

Human spleen cathepsin S = biological target: T2, Human spleen cathepsin S (Homo sapiens, UniProt P25774); experiment: Cathepsin S assay, IC50 determination; settings: Table 1; read-out: IC50 Cat S
T2 construct: Human spleen cathepsin S (Calbiochem 219344, 40 ng/mL); purchased Calbiochem 219344; host or cells: human spleen
Procedure: (§1) Human spleen cathepsin S (Calbiochem 219344, 40 ng/mL) was assayed using 15 microM Z-Phe-Arg-AMC substrate. Human liver cathepsin B (Calbiochem 219362, 65 ng/mL) was assayed using 15 microM Z-Arg-Arg-AMC substrate (Bachem I-1135). All reactions were performed in 20 mM sodium acetate buffer containing 1 mM EDTA and 5 mM cysteine, pH 5.5.
(§2) Compounds were serially diluted in DMSO and transferred into a 96-well Corning 3686 assay microplate to give a 16-point two-fold serial dilution dose response ranging from 25 microM to 760 pM. Human liver cathepsin L (Calbiochem 219402) was activated by incubating with assay buffer for 30 min. Upon activation, cathepsin L (300 pM, 8.7 ng/mL) was incubated with 1 microM Z-Phe-Arg-AMC substrate (Sigma C9521) and test compound in […] of assay buffer for 1 hour at room temperature. Fluorescence of AMC released by enzyme-catalyzed hydrolysis of Z-Phe-Arg-AMC was read on a PerkinElmer Envision microplate reader (excitation 355 nm, emission 460 nm). Data were scaled using internal controls and fitted to a four-parameter logistic model (IDBS XLfit equation 205) to obtain IC50 values in triplicate.
(§3) Compound No. 1 was assayed for inhibition against papain and cathepsins B, G, K, S, and V. Papain from Carica papaya (Calbiochem 5125, 11 ng/mL), human cathepsin K (Calbiochem 342001, 35 ng/mL), human spleen cathepsin S (Calbiochem 219344, 40 ng/mL), and human cathepsin V (Calbiochem 219467, 39 ng/ml) were assayed using Z-Phe-Arg-AMC substrate at 20 μM, 20 μM, 15 μM, and 1 μM, respectively. Human liver cathepsin B (Calbiochem 219362, 65 ng/mL) was assayed using 15 μM Z-Arg-Arg-AMC substrate (Bachem I-1135). Human neutrophil cathepsin G (Calbiochem 219373, 4.2 μg/mL) was assayed using 15 μM Suc-Ala-Ala-Pro-Phe-AMC substrate (Sigma S9761). All reactions were performed in 20 mM sodium acetate buffer containing 5 mM cysteine and 1 mM EDTA, pH 5.5. Reaction progress was monitored using the Envision microplate reader. IC50 values were measured in triplicate.

Human liver cathepsin B = biological target: T3, Human liver cathepsin B (Homo sapiens, UniProt P07858); experiment: Cathepsin B assay, IC50 determination; settings: Table 1; read-out: IC50 Cat B
T3 construct: Human liver cathepsin B (Calbiochem 219362, 65 ng/mL); purchased Calbiochem 219362; host or cells: human liver
Procedure: as §1, §2, §3

[1] = Table 17, n = 3, C, S or O at the sulfur position, read-out: Cathepsin L inhibitory activity IC50

T1 sequence (P07711 114-288 limits assumed): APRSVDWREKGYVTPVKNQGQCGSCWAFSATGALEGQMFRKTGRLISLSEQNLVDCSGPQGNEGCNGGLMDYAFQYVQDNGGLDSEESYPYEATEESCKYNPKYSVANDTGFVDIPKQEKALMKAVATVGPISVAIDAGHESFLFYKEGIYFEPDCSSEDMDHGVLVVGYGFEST
T1 sequence (P07711 292-333 limits assumed): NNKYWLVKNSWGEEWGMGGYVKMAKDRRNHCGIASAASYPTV
T2 sequence (P25774 115-331): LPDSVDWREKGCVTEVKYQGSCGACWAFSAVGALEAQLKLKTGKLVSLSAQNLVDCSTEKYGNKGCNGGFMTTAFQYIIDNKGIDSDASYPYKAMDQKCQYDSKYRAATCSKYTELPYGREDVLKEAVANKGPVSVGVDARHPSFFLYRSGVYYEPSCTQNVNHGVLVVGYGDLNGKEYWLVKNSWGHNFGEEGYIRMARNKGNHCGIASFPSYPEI

Row | SMILES | IC50 (human liver cathepsin L; [1]) [µM] | cathepsin L inhibitory activity (in words) (human liver cathepsin L) | IC50 (Human spleen cathepsin S) [µM] | IC50 (human liver cathepsin L; Table 1, read-out: IC50 Cat L) [µM] | IC50 (Human liver cathepsin B) [µM] | IC50 (human liver cathepsin L; read-out: IC50 against cathepsin L) [µM]
1 | CCc1ccccc1NC(=O)COC(=O)NNC(=O)C(Cc1c[nH]c2ccccc12)NC(=O)OC(C)(C)C (stereo not shown) [2-ethylanilide O] | 0.028 ± 0.004 | – | – | – | – | –
2 | CCc1ccccc1NC(=O)CSc1nnc([C@@H](N)Cc2c[nH]c3ccccc23)o1 [Compound (ii)] | – | completely devoid of activity | – | – | – | –
3 | CC(C)(C)OC(=O)N[C@@H](Cc1c[nH]c2ccccc12)C(=O)NNC(=O)SCC(=O)N1CCCc2ccccc21 [Compound No. 5] | – | – | 0.93 | 0.096 | 4.46 | –
4 | CC(C)(C)OC(=O)N[C@@H](Cc1c[nH]c2ccccc12)C(=O)NNC(=O)SCC(=O)NCCc1ccccc1 [Compound No. 7] | – | – | 0.32 | 0.029 | 6.59 | –
5 | CCOC(=O)c1cccc(NC(=O)CSC(=O)NNC(=O)[C@H](Cc2c[nH]c3ccccc23)NC(=O)OC(C)(C)C)c1 [Compound No. 8] | – | – | 0.68 | 0.062 | > 25 | –
6 | CCOC(=O)c1ccc(NC(=O)CSC(=O)NNC(=O)[C@H](Cc2c[nH]c3ccccc23)NC(=O)OC(C)(C)C)cc1 [Compound No. 9] | – | – | 0.58 | 0.057 | > 25 | –
7 | CC(C)(C)OC(=O)N[C@@H](Cc1c[nH]c2ccccc12)C(=O)NNC(=O)SCC(=O)N1CCOc2ccccc21 [Compound No. 10] | – | – | 0.95 | 0.22 | 3.23 | –
8 | CC(C)(C)OC(=O)N[C@@H](Cc1c[nH]c2ccccc12)C(=O)NNC(=O)SCC(=O)N1CCc2ccccc2C1 [Compound No. 12] | – | – | 0.53 | 0.019 | 3.25 | –
9 | CC(C)(C)OC(=O)N[C@@H](Cc1c[nH]c2ccccc12)C(=O)NNC(=O)SCC(=O)N1CCc2ccc(Br)cc2C1c1ccccc1 (stereo partly shown) [Compound No. 13] | – | – | 2.9 | 1.03 | > 25 | –
10 | CC(C)(C)OC(=O)N[C@@H](Cc1c[nH]c2ccccc12)C(=O)NNC(=O)SC1CCN(c2ccccc2)C1=O (stereo partly shown) [Compound No. 14] | – | – | 2.07 | 1.05 | 14 | –
11 | COC(=O)CSC(=O)NNC(=O)[C@H](Cc1c[nH]c2ccccc12)NC(=O)OC(C)(C)C [Compound No. 15] | – | – | 0.57 | 0.098 | 6.33 | –
12 | CCc1ccccc1NC(=O)CSC(=O)NNC(=O)[C@@H](Cc1c[nH]c2ccccc12)NC(=O)OC(C)(C)C [Compound No. 16] | – | – | > 25 | > 25 | > 25 | –
13 | CCc1ccccc1NC(=O)CSC(=O)NNC(=O)[C@H](CCSC)NC(=O)OC(C)(C)C [Compound No. 17] | – | – | 0.69 | 1.29 | 2.03 | –
14 | CSCC[C@H](NC(=O)OC(C)(C)C)C(=O)NNC(=O)SCC(=O)N1CCCc2ccccc21 [Compound No. 18] | – | – | 0.63 | 1.34 | 2.21 | –
15 | CSCC[C@H](NC(=O)OC(C)(C)C)C(=O)NNC(=O)SCC(=O)N1CCc2ccccc2C1 [Compound No. 19] | – | – | 0.41 | 0.52 | 2.31 | –
16 | CSCC[C@H](NC(=O)OC(C)(C)C)C(=O)NNC(=O)SCC(=O)NCCc1c[nH]c2ccccc12 [Compound No. 20] | – | – | 0.31 | 0.33 | 2.42 | –
17 | CCc1ccccc1NC(=O)CSC(=O)NNC(=O)[C@@H](NC(=O)OC(C)(C)C)C(C)C [Compound No. 21] | – | – | 3.74 | 0.66 | 0.87 | –

Row | SMILES | IC50 (human liver cathepsin L; [1]) [µM] | cathepsin L inhibitory activity (in words) (human liver cathepsin L) | IC50 (Human spleen cathepsin S) [µM] | IC50 (human liver cathepsin L; Table 1, read-out: IC50 Cat L) [µM] | IC50 (Human liver cathepsin B) [µM] | IC50 (human liver cathepsin L; read-out: IC50 against cathepsin L) [µM]
18 | CC(C)[C@H](NC(=O)OC(C)(C)C)C(=O)NNC(=O)SCC(=O)N1CCCc2ccccc21 [Compound No. 22] | – | – | 4.24 | 0.68 | 0.63 | –
19 | CC(C)[C@H](NC(=O)OC(C)(C)C)C(=O)NNC(=O)SCC(=O)N1CCc2ccccc21 [Compound No. 23] | – | – | 7.24 | 0.45 | 0.44 | –
20 | CC(C)[C@H](NC(=O)OC(C)(C)C)C(=O)NNC(=O)SCC(=O)Nc1ccc2c(c1)CCCC2 [Compound No. 24] | – | – | 0.62 | 0.11 | > 25 | –
21 | CCc1ccccc1NC(=O)CSC(=O)NNC(=O)[C@H](C)NC(=O)OC(C)(C)C [Compound No. 25] | – | – | > 25 | ≥ 25 | > 25 | –
22 | C[C@H](NC(=O)OC(C)(C)C)C(=O)NNC(=O)SCC(=O)N1CCCc2ccccc21 [Compound No. 26] | – | – | > 25 | ≥ 25 | > 25 | –
23 | CCc1ccccc1NC(=O)CSC(=O)NNC(=O)[C@H](CCC(=O)O)NC(=O)OC(C)(C)C [Compound No. 27] | – | – | > 25 | ≥ 25 | > 25 | –
24 | CCc1ccccc1NC(=O)CSC(=O)NNC(=O)[C@H](CC(C)C)NC(=O)OC(C)(C)C [Compound No. 29] | – | – | 1.65 | 1.09 | 2.63 | –
25 | CCc1ccccc1NCCSC(=O)NNC(=O)[C@H](CC(C)C)NC(=O)OC(C)(C)C [Compound No. 30] | – | – | > 25 | > 25 | > 25 | –
26 | CC(C)C[C@H](NC(=O)OC(C)(C)C)C(=O)NNC(=O)SCC(=O)N1CCCc2ccccc21 [Compound No. 31] | – | – | 1.64 | 1.64 | 2.72 | –
27 | CCc1ccccc1NC(=O)CSC(=O)NNC(=O)[C@@H]1CCCN1C(=O)OC(C)(C)C [Compound No. 32] | – | – | > 25 | > 25 | > 25 | –
28 | CC(C)(C)OC(=O)N1CCC[C@H]1C(=O)NNC(=O)SCC(=O)N1CCCc2ccccc21 [Compound No. 33] | – | – | > 25 | > 25 | > 25 | –
29 | CCc1ccccc1NCCSC(=O)NNC(=O)[C@H](Cc1ccccc1)NC(=O)OC(C)(C)C [Compound No. 35] | – | – | > 25 | > 25 | > 25 | –
30 | CCc1ccccc1NC(=O)CSC(=O)NNC(=O)[C@H](Cc1ccc(OCc2ccccc2)cc1)NC(=O)OC(C)(C)C [Compound No. 36] | – | – | 2.83 | 0.83 | 5.08 | –
31 | CC(C)(C)OC(=O)N[C@@H](Cc1ccc(OCc2ccccc2)cc1)C(=O)NNC(=O)SCC(=O)Nc1ccccc1[N+](=O)[O-] [Compound No. 38] | – | – | 2.08 | 0.59 | 2.77 | –
32 | CCc1ccccc1NC(=O)CSC(=O)NNC(=O)[C@@H](Cc1c[nH]c2ccccc12)NC(=O)OC(C)(C)C [R-enantiomer of Compound No. 1] | – | – | – | – | – | 34
33 | CC(C)(C)OC(=O)NC(Cc1c[nH]c2ccccc12)C(=O)NNC(=O)SCC(=O)N1CCCc2ccccc21 (stereo not shown) [Tetrahydroquinoline S] | 0.041 ± 0.002 | – | – | – | – | –
